US9309514B2, “G protein-coupled purinergic receptor Gpr17 mediates orexigenic effects of FoxO1 in AgRP neurons” (THE TRUSTEES OF COLUMBIA UNIVERSITY IN THE CITY OF NEW YORK, priority 2012, dated 2016)

Tests used:
AgRP neurons [1] = test: Immunohistochemistry of pSTAT3, pS6 and pAkt in AgRP or POMC neurons after delivery into the 3rd ventricle
Method: Stereotactic manipulations in 3-4 month-old C57BL/6 mice were performed. Cannulae were placed and allowed 1 week for recovery (−1.8 mm anterior and 0 mm lateral to bregma and 5.3 mm below the skull surface). Correct positioning of the cannulae was verified by monitoring drinking activity after angiotensin injection. […] For immunohistochemistry studies, mice 4-5 hr were perfused after refeeding.
To test whether Gpr17 function affects ARH hormonal signaling in vivo, cangrelor was delivered directly into the 3rd ventricle of mice after an overnight fast and the co-localization of pSTAT3, pS6, and pAkt was determined in either POMC or AgRP neurons, identified by fluorescent reporter, after refeeding.

mice [2] = test: Glucose tolerance test / blood glucose after Gpr17 agonist administration; type: in vivo; conditions: 6 hr fast, test 20 minutes after administration (FIG. 12C)
Method: FIG. 12A-12D. […] (A) Satiated mice were injected with saline or Gpr17 agonist LTD4 (n=5-7). Food intake was monitored for the following time course. (B) Locomotor activity counts of satiated mice during daytime within 1.5 hours following administration of Gpr17 agonist LTD4 (n=6). (C) After fasting for 6 hrs, saline or LTD4 were administered to the mice (n=6-7). Glucose tolerance test was performed 20 minutes after the administration. […] Glucose was measured before or 20 minutes after the administration.

mice [3] = test: Food intake after ICV (3rd ventricle) injection; type: in vivo
Excerpt: ELISA for leptin, insulin, and glucagon measurements (Millipore), and colorimetric assays for plasma free fatty acids and glycerol (Wako) were used.
The effect of delivering cangrelor into the 3rd ventricle of mice on food intake was studied.

AgRP neurons [4] = test: Patch-clamp electrophysiology of fluorescently labeled AgRP neurons in brain slices; type: cell-based, mice
Method: 300-μm coronal ARH slices were prepared from 6- to 8-week-old mice using ice cold sucrose-based cutting solution (adjusted to pH 7.3) containing (in mM): 10 NaCl, 25 NaHCO3, 195 sucrose, 5 glucose, 2.5 KCl, 1.25 NaH2PO4, 2 Na pyruvate, 0.5 CaCl2, and 7 MgCl2 bubbled continuously with 95% O2 and 5% CO2. Slices were allowed to recover at least 45 minutes at room temperature in recording solution (adjusted to pH 7.3) containing (in mM): 125 NaCl, 5 glucose, 25 NaHCO3, 2.5 KCl, 1.25 NaH2PO4, 2 CaCl2, and 1 MgCl2 bubbled continuously with 95% O2 and 5% CO2 before transferring them to a perfusion chamber for recording. Patch pipettes were pulled to resistances of 7-9 MΩ and filled them with solution (adjusted to pH 7.3) containing 128 K gluconate, 10 KCl, 10 HEPES, 0.1 EGTA, 2 MgCl2, 0.3 Na-GTP, and 3 Mg-ATP. Cells were selected using an upright microscope fitted with fluorescence optics (Nikon) and patched under IR-DIC optics. Electrical access was assessed in the whole-cell recording mode using a small-voltage step-pulse before and at the end of the current clamp recordings. Recordings were discarded in which the series resistance had been >15 MΩ. Current clamp recordings were acquired with no current injection using a MultiClamp 700B amplifier and Clampex data acquisition software (Axon Instruments). Action potential (AP) firing frequency, membrane potential, and AP amplitude using MiniAnalysis (Synaptosoft) were recorded at room temperature and analyzed. Electrophysiological recording to measure mEPSC and mIPSC in brain slices was performed as previously described (Pinto et al., 2004).
The electrophysiological properties of AgRP neurons identified using fluorescent reporters in brain slices from wild-type and Agrp-Foxo1^−/− mice (FIG. 5D-F) were studied. […] Furthermore, insulin suppressed the firing frequency of wild-type cells to ˜35% of basal level, a nearly three-fold reduction. Despite the lower basal firing frequency, insulin further suppressed the firing frequency of knockout neurons, with a 100-fold reduction. Insulin caused a similar reduction in membrane potential in wild-type and knockout cells (˜−20 mV).
Given the favorable metabolic profile of Agrp-Foxo1^−/− mice, experiments were designed to identify FoxO1 targets that mediate its effects and are readily targetable by chemical means. […] Next, Gpr17 regulation in ARH punch biopsies from fasted and refed mice was examined. […] To investigate the function of Gpr17 in AgRP neurons, the electrophysiological properties of fluorescently labeled AgRP neurons in response to the Gpr17 antagonist, cangrelor were tested. […] Therefore, inhibition of Gpr17 can affect the electrical activity of AgRP neurons in an insulin-mimetic fashion, supporting our hypothesis.

[5] = in vivo; cited from earlier work
Neuro2A (N2A) cells = test: Insulin signaling (pAkt western blot) in wild type N2A cells treated with or without cangrelor; type: cell-based; conditions: serum starved overnight, stimulated with insulin
Method: FIG. 14. Neuro2A (N2A) cells are a suitable model for studying the molecular mechanisms of Gpr17 signaling. Wild type N2A cells (treated with or without cangrelor) were serum starved overnight and stimulated with insulin. Insulin signaling activity was gauged by measuring pAkt by western blot. N2A cells express minimal endogenous Gpr17.
More experiments were conducted to study the in vivo regulation of Gpr17 expression by FoxO1. It was discovered that Knocking out FoxO using Synapsin-Cre in mediobasal hypothalamus (MBH) caused a concomitant reduction of Gpr17, further showing that Gpr17 is the endogenous target of FoxO. FIG. 13, panel A. Moreover, Gpr17 expression was elevated in the hippocampus of insulin resistant diabetic GIRKO mice. FIG. 13, panel B. Further studies of Gpr17 expression showing that it contributes to the causality of diabetes, were conducted using Neuro2A (N2A) cells that express minimal endogenous Gpr17. Wild type N2A cells (treated with or without cangrelor) were serum starved overnight and then stimulated with insulin. Insulin signaling activity was gauged by measuring pAkt by western blot. […] FIG. 14.

platelet = conditions: 4 μg/kg per minute IV, in approximately 70% of patients after 15 min; cited from earlier work
mouse Gpr17 = test: siRNA knockdown of Gpr17 in Gpr17-mCherry stable line (diminished mCherry signal); type: cell-based; conditions: Gpr17-mCherry stable line transfected with RNAi construct
Excerpt: Seven siRNA sequences were designed based on the gene sequence of mouse Gpr17. DNA oligomers were ligated into a MSCV-P2Gm vector and verified by sequencing. The correct clones were used for further evaluation of the effectiveness of each RNAi construct. Gpr17-mCherry-stable line was transfected with each of the seven constructs. The effectiveness of RNAi was scored by the diminished mCherry signal in cells. […] The resultant adenovirus expresses RNAi upon Cre-dependent recombination. Seven oligomer sequences to generate Gpr17 RNAi. The 7 oligomers were ligated into the vector (MSCV-P2Gm) to generate RNAi specific for Gpr17 gene. The sequences are provided as following. The common adaptor sequence is provided, and the targeting siRNA (specific for mouse Gpr17) sequence is highlighted with underline.
In another series of experiments, siRNA sequences that knock down Gpr17 were identified. Seven candidate siRNA sequences conjugated to Gfp (green) and directed against mouse Gpr17 were cloned into a vector and their ability to inhibit Gpr17 expression was determined in Gpr17-mCherry stable line by their effectiveness in diminishing red fluorescence. Seven candidate sequences against mouse Gpr17 were cloned into vector. The resultant adenovirus expresses RNAi upon Cre-dependent recombination. Various degrees of knockdown of Gpr17 were achieved using siRNA.

[6] = delivered into 3rd ventricle after overnight fast, determined after refeeding
[7] = 3rd ventricle, overnight fast, refeeding, in a subset of AgRP neurons
[8] = cangrelor treatment (90 nM), same neurons before and after
[9] = insulin, wild-type AgRP neurons

In the case of `CCCCC/C=C\C\C=C/C=C/C=C/[C@@H](SC[C@H](N)C(=O)NCC(=O)O)[C@@H](O)CCCC(=O)O` [LTD4], the “pSTAT3 content in AgRP neurons” value (AgRP neurons [1]; [6]) is reported as “decreased”, the “glucose tolerance test / neuronal regulation of glucose homeostasis” value (mice [2]) is reported as “impairs neuronal regulation of glucose homeostasis” and the food intake (mice [3]; satiated mice injected with saline or LTD4 (FIG. 12A)) is reported as “increases food intake”.

In the case of `CSCCNc1nc(SCCC(F)(F)F)nc2c1ncn2[C@@H]1O[C@H](COP(=O)(O)OP(=O)(O)C(Cl)(Cl)P(=O)(O)O)[C@@H](O)[C@H]1O` [cangrelor, [dichloro-[[[(2R,3S,4R,5R)-3,4-dihydroxy-5-[6-(2-methylsulfanylethylamino)-2-(3,3,3-trifluoropropylsulfanyl)purin-9-yl]oxolan-2-yl]methoxy-hydroxyphosphoryl]oxy-hydroxyphosphoryl]methyl]phosphonic acid], the “pAkt and pS6 in POMC neurons” value (AgRP neurons [1]; 3rd ventricle, overnight fast, refeeding) is reported as “without effecting detectable changes”, the “pAkt in AgRP neurons” value (AgRP neurons [1]; [7]) is reported as “increased” and the “pS6 in AgRP neurons” value (AgRP neurons [1]; [7]) is reported as “increased”. For the same molecule, the “pSTAT3 content in AgRP neurons” value (AgRP neurons [1]; [6]) was “specifically and dramatically increased”, the “pSTAT3 content in POMC neurons” value (AgRP neurons [1]; [6]) was “not in POMC neurons” and the “firing frequency of AgRP neurons” value (AgRP neurons [4]; [8]) was “significantly reduced”. The “membrane potential of AgRP neurons” value (AgRP neurons [4]; [8]) was “lower”, the plasma half-life [5] was “three to six” and the “insulin signaling (pAkt by western blot)” value (Neuro2A (N2A) cells) was “minimal effect”. For the same molecule, the platelet inhibition (platelet) was 100% and the “food intake during refeeding” value (mice [3]; Agrp-Foxo1−/− mice, overnight fast, cangrelor into 3rd ventricle) was “completely unaffected”.

In the case of “insulin: anorexigenic hormone applied to AgRP neurons in brain slices”, the “fold reduction of firing frequency” value (AgRP neurons [4]; insulin, Agrp-Foxo1−/− (knockout) AgRP neurons) is reported as 100 fold, the “firing frequency relative to basal level” value (AgRP neurons [4]; [9]) is reported as ~35 % of basal level and the “fold reduction of firing frequency” value (AgRP neurons [4]; [9]) is reported as “three”. For the same molecule, the “reduction in membrane potential” value (AgRP neurons [4]; insulin, wild-type and knockout cells) was about −20 mV.

B1: SEQ ID NO. 9: oligomer ligated into MSCV-P2Gm vector to generate RNAi specific for mouse Gpr17 (nucleic acid)
DNA: TGCTGTTGACAGTGAGCGAAACTGTACCGGGAGAAGGCCTTAGTGAAGCCACAGATGTAAGGCCTTC
With B1 the “effectiveness in knocking down Gpr17 expression (diminishing red fluorescence)” value (from here on “effectiveness”) (mouse Gpr17) was “most effective”.

B2: SEQ ID NO. 7: oligomer ligated into MSCV-P2Gm vector to generate RNAi specific for mouse Gpr17 (nucleic acid)
DNA: TGCTGTTGACAGTGAGCGCCCGGATCACCTCCTGCCTCACTAGTGAAGCCACAGATGTAGTGAGGCAGGAGGTGATCCGGTTGCCTACTGCCTCGGA
In the case of B2, the “effectiveness” value (mouse Gpr17) is reported as “most effective”.

B3: SEQ ID NO. 6: oligomer ligated into MSCV-P2Gm vector to generate RNAi specific for mouse Gpr17 (nucleic acid)
DNA: TGCTGTTGACAGTGAGCGATGGCTTCCTCTTCTATCTGAATAGTGAAGCCACAGATGTATTCAGATAGAAGAGGAAGCCAGTGCCTACTGCCTCGGA
In the case of B3, the “effectiveness” value (mouse Gpr17) is reported as “most effective”.
